The text below walks through data of ChEMBL document CHEMBL1130624, “In vitro inhibitory effects of DNA topoisomerase II by fernane-type triterpenoids isolated from a Euphorbia genus” (Bioorg Med Chem Lett, 1998).

What all share (format): protein assay
Experiment [1] concerns the target T1, DNA topoisomerase II (Homo sapiens) (UniProt P11388+Q02880). Put plainly: Compound was tested in vitro for inhibitory effect on DNA topoisomerase II activity at a concentration of 100 uM; No inhibition.
The target in experiment [2] is T1, DNA topoisomerase II (Homo sapiens). Kind of experiment: Compound was tested in vitro for inhibitory effect on DNA topoisomerase II activity at a concentration of 50 uM; […].
For experiment [3] the target is unchanged. Kind of experiment: Compound was tested in vitro for inhibitory effect on DNA topoisomerase II activity at a concentration of 12.5 uM; Evidence inhibition.
For experiment [4] the target is unchanged. Put plainly: Compound was tested in vitro for inhibitory effect on DNA topoisomerase II activity at a concentration of 100 uM; […].
For experiment [5] the target is unchanged. Kind of experiment: Compound was tested in vitro for inhibitory effect on DNA topoisomerase II activity at a concentration of 3.2 uM; No inhibition.
Experiment [6] has the same target. Kind of experiment: Compound was tested in vitro for inhibitory effect on DNA topoisomerase II activity at a concentration of 6.3 uM; Slight inhibition.
The target is the same in experiment [7]. Put plainly: Compound was tested in vitro for inhibitory effect on DNA topoisomerase II activity at a concentration of 25 uM; […].
Experiment [8] has the same target. Kind of experiment: Compound was tested in vitro for inhibitory effect on DNA topoisomerase II activity at a concentration of 12.5 uM; No inhibition.
For experiment [9] the target is unchanged. Put plainly: Compound was tested in vitro for inhibitory effect on DNA topoisomerase II activity at a concentration of 25 uM; No inhibition.
For experiment [10] the target is unchanged. Kind of experiment: Compound was tested in vitro for inhibitory effect on DNA topoisomerase II activity at a concentration of 6.3 uM; No inhibition.
For experiment [11] the target is unchanged. Kind of experiment: Compound was tested in vitro for inhibitory effect on DNA topoisomerase II activity at a concentration of 100 uM; Evidence inhibition.
The target is the same in experiment [12]. Put plainly: Compound was tested in vitro for inhibitory effect on DNA topoisomerase II activity at a concentration of 50 uM; Slight inhibition.

Calls of active or inactive are those of the source. The rule behind the calls is not given here.

Take `CC(C)[C@H]1CC[C@@H]2[C@]1(C)CC[C@]1(C)C3=C(C(=O)C[C@@]21C)[C@@]1(C)CC[C@H](O)C(C)(C)C1CC3=O` (some centres undefined): the result in [1] was inactive.

With `CC(C)[C@H]1CC[C@@H]2[C@]1(C)CC[C@]1(C)C3=C(C(=O)C[C@@]21C)[C@@]1(C)CC[C@H](O)C(C)(C)C1C[C@@H]3O` (some centres undefined), the outcome in experiment [1] was inactive.

Regarding `C=C(C)[C@@H]1CC[C@@H]2C(=CC[C@@]3(C)[C@@H]4CC[C@H](C(C)C)[C@@]4(C)CC[C@]23C)[C@@]1(C)CCC(=O)O`, the Activity entry in [2] is given as “Slight inhibition”; in experiment [3] it was “Evidence inhibition”; in [4] it was “Slight inhibition”; in experiment [6], “Slight inhibition”; in [7], “Slight inhibition”. Also, in experiment [5], the result was inactive.

As to `C=C(C)[C@@H]1CC[C@@H]2C(=CC[C@@]3(C)[C@@H]4CC[C@H](C(C)C)[C@@]4(C)CC[C@]23C)[C@@]1(C)CCCO`, the Activity result is recorded as “Slight inhibition” in experiment [2]; “Evidence inhibition” in experiment [3]; “Slight inhibition” in experiment [4]; “Slight inhibition” in experiment [6]; “Slight inhibition” in experiment [7]. Further, the result in experiment [5] was inactive.

Take `CC(C)[C@H]1CC[C@@H]2[C@]1(C)CC[C@]1(C)C3=C([C@H](O)C[C@@]21C)[C@@]1(C)CC[C@H](O)C(C)(C)C1CC3=O` (some centres undefined): the result in [1] was inactive.

On to `C=C(C)[C@@H]1CC[C@@H]2C(=CC[C@@]3(C)[C@@H]4CC[C@H](C(C)C)[C@@]4(C)CC[C@]23C)[C@@]1(C)CCC(=O)OC`, for which the result in [1] was inactive.

For the molecule `C=C(C)[C@@H]1CC[C@@H]2C(=CC[C@@]3(C)[C@@H]4CC[C@H](C(C)C)[C@@]4(C)CC[C@]23C)[C@@]1(C)CCC(=O)OCc1ccccc1`, the result in experiment [8], in experiment [9], in [10] and in experiment [5] was inactive. Moreover, the Activity result in experiment [11] is on record as “Evidence inhibition”; in experiment [12], “Slight inhibition”.

Take `COc1cc([C@@H]2c3cc4c(cc3[C@@H](O[C@@H]3O[C@@H]5CO[C@@H](C)O[C@H]5[C@H](O)[C@H]3O)[C@H]3COC(=O)[C@H]23)OCO4)cc(OC)c1O`: the outcome in experiment [8], in experiment [9], in [10] and in experiment [5] was inactive. In addition, the Activity result is “Evidence inhibition” in experiment [11] and “Slight inhibition” in experiment [12].

Regarding `CC(C)[C@H]1CC[C@@H]2[C@]1(C)CC[C@]1(C)C3=C(CC[C@@]21C)[C@@]1(C)CC[C@H](O)C(C)(C)C1CC3` (some centres undefined), the result in [1] was inactive.
